Earlier results in patent publication US5869538A, “Method for enhancing transport of gases to tissues” (priority 1996, dated 1999).

Conditions: for Diffusivities / Solubilities: Table 2, simulation parameter

| Diffusivities | Solubilities | N2O solubility | SMILES |
| --- | --- | --- | --- |
| 1.32 × 10^-3 cm^2 /min | – | – | N#N [N2, nitrogen] |
| 1.05 × 10^-3 cm^2 /min | 2.35 mlml^-1 100 kPa^-1 | – | O=C=O [CO2, carbon dioxide] |
| 1.24 × 10^-3 cm^2 /min | 0.0227 mlml^-1 100 kPa^-1 | – | O=O [O2, oxygen] |
| – | – | 0.45 ml N2 O /ml blood/atm | [N-]=[N+]=O [N2O, reference compound] |
